“And” between values parts separate entries of the source, which are not always exact repeats. Equal entries are not always repeated. Inconclusive results and toxic doses are left out.
Test system: L1210 leukemia ip in BDF1 mice, survival T/C
Experiment: NCI In Vivo Anticancer Drug Screen. Data for tumor model L1210 Leukemia (intraperitoneal) in B6D2F1 (BDF1) mice
Conditions: endpoint: mean survival time, higher = longer survival
Summary of the method: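 Antitumor effect is assessed in tumor-bearing animals. Survival in the compound arm is compared with a vehicle-dosed control arm and expressed as their quotient.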

**Q.** `OC(C1CO1)C(O)C1CO1` (centres undefined) was tested. Which T/C (dose: 0.25 mg/kg/injection, schedule: Q03HX008 (ip), vehicle: saline) did it give?
**A.** 106 % of control

**Q.** What about the T/C (dose: 0.35 mg/kg/injection, schedule: Q01DX009 (ip), vehicle: saline) of the same compound?
**A.** 94 % of control

**Q.** What about the T/C (dose: 0.5 mg/kg/injection, schedule: Q01DX009 (ip), vehicle: saline) of the same compound?
**A.** 104 % of control

**Q.** And the T/C (dose: 0.5 mg/kg/injection, schedule: Q03HX008 (ip), vehicle: saline)?
**A.** 115 % of control

**Q.** And the T/C (dose: 0.52 mg/kg/injection, schedule: Q01DX009 (ip), vehicle: saline)?
**A.** 97 % of control

**Q.** What about the T/C (dose: 0.61 mg/kg/injection, schedule: Q04DX003 (ip), vehicle: saline) of the same compound?
**A.** 104 % of control

**Q.** What about the T/C (dose: 0.65 mg/kg/injection, schedule: Q01DX009 (ip), vehicle: water) of the same compound?
**A.** 110 % of control

**Q.** What about the T/C (dose: 0.96 mg/kg/injection, schedule: Q01DX001 (ip), vehicle: saline) of the same compound?
**A.** 119 % of control

**Q.** And the T/C (dose: 1.0 mg/kg/injection, schedule: Q01DX009 (sc), vehicle: saline)?
**A.** 121 % of control

**Q.** And the T/C (dose: 1.0 mg/kg/injection, schedule: Q03HX016 (ip), vehicle: saline)?
**A.** 160 % of control

**Q.** And the T/C (dose: 1.0 mg/kg/injection, schedule: Q03HX024 (ip), vehicle: saline)?
**A.** 170 % of control

**Q.** And the T/C (dose: 1.0 mg/kg/injection, schedule: Q04DX003 (ip), vehicle: saline)?
**A.** 110 % of control and 116 % of control

**Q.** And the T/C (dose: 1.25 mg/kg/injection, schedule: Q04DX003 (ip), vehicle: saline)?
**A.** 104 % of control

**Q.** What about the T/C (dose: 1.3 mg/kg/injection, schedule: Q01DX009 (ip), vehicle: saline) of the same compound?
**A.** 175 % of control

**Q.** And the T/C (dose: 1.4 mg/kg/injection, schedule: Q01DX001 (ip), vehicle: saline)?
**A.** 119 % of control

**Q.** And the T/C (dose: 1.4 mg/kg/injection, schedule: Q01DX009 (ip), vehicle: saline)?
**A.** 184 % of control

**Q.** What about the T/C (dose: 1.6 mg/kg/injection, schedule: Q01DX009 (ip), vehicle: water) of the same compound?
**A.** 102 % of control

**Q.** What about the T/C (dose: 1.87 mg/kg/injection, schedule: Q01DX001 (ip), vehicle: saline) of the same compound?
**A.** 110 % of control

**Q.** What about the T/C (dose: 2.0 mg/kg/injection, schedule: Q01DX001 (ip), vehicle: saline) of the same compound?
**A.** 116 % of control

**Q.** And the T/C (dose: 2.0 mg/kg/injection, schedule: Q03HX008 (ip), vehicle: saline)?
**A.** 227 % of control

**Q.** And the T/C (dose: 2.0 mg/kg/injection, schedule: Q03HX016 (ip), vehicle: saline)?
**A.** 218 % of control

**Q.** What about the T/C (dose: 2.0 mg/kg/injection, schedule: Q03HX024 (ip), vehicle: saline) of the same compound?
**A.** 105 % of control

**Q.** And the T/C (dose: 2.0 mg/kg/injection, schedule: Q04DX003 (ip), vehicle: saline)?
**A.** 123 % of control

**Q.** What about the T/C (dose: 2.0 mg/kg/injection, schedule: Q08DX002 (ip), vehicle: saline) of the same compound?
**A.** 113 % of control

**Q.** And the T/C (dose: 2.5 mg/kg/injection, schedule: Q01DX009 (ip), vehicle: saline)?
**A.** 118 % of control

**Q.** And the T/C (dose: 2.5 mg/kg/injection, schedule: Q04DX003 (ip), vehicle: saline)?
**A.** 105 % of control and 115 % of control

**Q.** What about the T/C (dose: 3.0 mg/kg/injection, schedule: Q01DX009 (ip), vehicle: saline) of the same compound?
**A.** 163 % of control and 186 % of control and 193 % of control

**Q.** And the T/C (dose: 3.0 mg/kg/injection, schedule: Q01DX009 (ip), vehicle: water)?
**A.** 224 % of control

**Q.** And the T/C (dose: 3.2 mg/kg/injection, schedule: Q01DX009 (ip), vehicle: saline)?
**A.** 120 % of control

**Q.** And the T/C (dose: 3.3 mg/kg/injection, schedule: Q01DX001 (ip), vehicle: saline)?
**A.** 154 % of control

**Q.** And the T/C (dose: 3.75 mg/kg/injection, schedule: Q01DX001 (ip), vehicle: saline)?
**A.** 118 % of control

**Q.** What about the T/C (dose: 4.0 mg/kg/injection, schedule: Q01DX001 (sc), vehicle: saline) of the same compound?
**A.** 115 % of control

**Q.** And the T/C (dose: 4.0 mg/kg/injection, schedule: Q01DX009 (ip), vehicle: saline)?
**A.** 160 % of control

**Q.** And the T/C (dose: 4.0 mg/kg/injection, schedule: Q04DX003 (ip), vehicle: saline)?
**A.** 168 % of control and 170 % of control and 198 % of control

**Q.** And the T/C (dose: 4.0 mg/kg/injection, schedule: Q08DX002 (ip), vehicle: saline)?
**A.** 155 % of control

**Q.** And the T/C (dose: 4.6 mg/kg/injection, schedule: Q01DX001 (ip), vehicle: saline)?
**A.** 113 % of control

**Q.** And the T/C (dose: 4.6 mg/kg/injection, schedule: Q01DX009 (ip), vehicle: saline)?
**A.** 89 % of control

**Q.** What about the T/C (dose: 4.6 mg/kg/injection, schedule: Q04DX003 (ip), vehicle: saline) of the same compound?
**A.** 242 % of control and 112 % of control

**Q.** What about the T/C (dose: 4.6 mg/kg/injection, schedule: Q08DX002 (ip), vehicle: saline) of the same compound?
**A.** 163 % of control

Source: PubChem BioAssay AID248 (DTP/NCI, 2004)
